What was measured:
Type in all cases: in vivo
[1] = system: lower urinary tract obstruction model of rats (female); experiment: Test Example 1: urination function in lower urinary tract obstruction model of female rats; conditions: oral once a day 2 weeks, Compound B 3 mg/kg and 10 mg/kg
Source text: A lower urinary tract obstruction model of rats was used as a test system. A test substance was orally administered to the lower urinary tract obstruction model repeatedly over two (2) weeks to examine the action on the urination function in the lower urinary tract obstruction model.
More specifically, the rats (female, Crl:CD(SD), 8-week-old; Charles River Laboratories Japan, Inc.) were operated to form lower urinary tract obstruction and repeatedly received oral administration of the test substance at a frequency of once a day over two (2) weeks. After the completion of the administration, each rat was subjected to bladder catheterization under anesthesia, cystometry under no anesthesia, then cystometry under urethane anesthesia, and euthanasia under deep anesthesia, and the tissues (bladder, kidney) of the rat were extracted or surgically removed. As a normal group, the rats without operation for forming lower urinary tract obstruction were used.
The test system, the test substances, and the dosage are as follows. • Normal group: 0.5 v/v % Polysorbate 80 solution, 10 mL/kg (n=6) • Solvent group (control group): 0.5 v/v % Polysorbate 80 solution, 10 mL/kg (n=15) • Group A: Compound A, 10 mg/kg (n=15) • Group B3: Compound B, 3 mg/kg (n=7) • Group B10: Compound B, 10 mg/kg (n=7)
After urination, the residual urine was aspirated from the outlet end of the catheter placed in the bladder to measure the volume (mL) of the residual urine.
After urination, the weight of the voided urine was measured to determine the voided volume (g=mL), and then the urination efficiency was calculated by the following equation: Urination efficiency (%)=[(Voided volume (mL))/(Voided volume (mL)+Residual urine volume (mL))]×100
Bladder capacity (mL)=Voided volume (mL)+Residual urine volume (mL)
Moreover, the wet weight of the extracted bladder and that of the extracted kidney were measured.

[2] = system: rats having the urination disorder associated with diabetes; experiment: Test Example 6: urination disorder model associated with streptozocin-induced diabetes, compound A versus compound C; conditions: STZ diabetes model
Experimental: As described below, a model of a urination disorder associated with streptozocin-induced diabetes was prepared as a urination disorder model in accordance with Test Example 4 to evaluate the effects of the compound A and the compound C on a urination disorder. This model has no benign prostatic hyperplasia and is a model of a urination disorder associated with neuropathy and smooth muscle contraction disorder.
The body weights of Rats (male, Crl:CD(SD), 5-week-old; Charles River Laboratories Japan, Inc.) were measured. On the basis of the body weight, the rats were grouped or divided into two (2) groups. The day after the rats were grouped, a first group received intraperitoneal administration of a citrate buffer (pH 4.5) (10 mL/kg) having a concentration of 0.1 mmol/L, and a second group received intraperitoneal administration of streptozocin (STZ; Sigma-Aldrich) (50 mg/kg). Streptozocin (STZ) was administered in the form of a solution of streptozocin having a concentration of 5 mg/mL in the citrate buffer.
About one (1) week after streptozocin (STZ) was administered, the body weight and the fasting blood glucose were measured. In the streptozocin (STZ) administration group (the second group), individuals having a fasting blood glucose level of not less than 300 mg/dL were used as animals with induced diabetes. These animals with induced diabetes are a model having no abnormality of the prostate (having no benign prostatic hyperplasia). On the basis of the body weight and the fasting blood glucose level, the animals (models) with induced diabetes were grouped or divided into three (3) groups by randomized, multivariable block allocation.
To the three model groups with induced diabetes, a 0.5 v/v % Polysorbate 80 solution (0.5% P) (10 mL/kg), the compound A (3 mg/kg), and the compound C (dutasteride) (0.3 mg/kg) were orally administered, respectively, wherein the administration schedule in all groups was a frequency of once a day, only on weekdays, over four (4) weeks. Moreover, to the above-mentioned first group, a 0.5 v/v % Polysorbate 80 solution (0.5% P) (10 mL/kg) was orally administered in the same administration schedule (normal group). On the last day of administration, a cannula was inserted into and secured to the dome of the bladder under isoflurane anesthesia, and cystometry (Cystometogram, CMG) was conducted in the order of under awake condition and under urethane anesthesia to measure the intravesical pressure, the voided volume, and the residual urine volume. After the completion of the measurement, the blood was collected under deep isoflurane anesthesia, and then the prostate (ventral prostate, dorsolateral prostate) was extracted and each was weighed. Moreover, the blood glucose level in the collected blood was measured.
Normal group: citrate buffer 10 mL/kg (intraperitoneal administration), 0.5% P 10 mL/kg (oral administration) (n=10) • Solvent group (control group): STZ 50 mg/kg (intraperitoneal administration), 0.5% P 10 mL/kg (oral administration) (n=10) • Group A3: STZ 50 mg/kg (intraperitoneal administration), Compound A 3 mg/kg (oral administration) (n=10) • Group C0.3: STZ 50 mg/kg (intraperitoneal administration), Compound C (dutasteride) 0.3 mg/kg (oral administration) (n=10)
Urination parameter: In the same manner as in Test Example 4, the residual urine volume (mL) and the urination efficiency (%) were determined as urination parameters in each urination, and the average value of two measurements was taken as a measured value of each individual.
Prostate weight: In the same manner as in Test Example 4, the weight of the prostate (ventral prostate, dorsolateral prostate, and whole) was converted to a tissue weight per 100 g of the body weight. For Group A3, which received the compound A, and Group C0.3, which received the compound C, the inhibition rate of the weight of the prostate relative to the weight of the prostate in the solvent group was calculated (with one decimal place). […]

ovariectomized rats = experiment: Test Example 5: antiprogesterone activity, uterine weight associated with rat deciduoma formation; conditions: Rattus norvegicus, 192 h; ovariectomized rats, estrone + progesterone, oral 3 mg/kg once a day 8 days, compared with the solvent group; read-out: inhibition rate (increase of uterine weight, deciduoma formation)
Experimental: For the compound A and the compound D (mifepristone), the antiprogesterone activity was measured. Specifically, a sex hormone and a test substance were repeatedly administered to ovariectomized rats as a test system to examine the antiprogesterone action (antiprogesterone activity) based on, as an index, the fluctuation of the uterine weight (the inhibitory action relative to the increase of the weight) associated with rat deciduoma formation.
More specifically, rats (female, Crl:CD(SD), 5-week-old: Charles River Laboratories Japan, Inc.) were subjected to ovariectomy, and from one (1) week after the ovariectomy, a high dose estrone of 5 μg/one animal was hypodermically administered to the rats once a day for three (3) days. From the day after one day rest period, the rats received, once a day over eight (8) days, hypodermic administration of a low dose estrone (1 μg/one animal), intramuscular administration of progesterone (6 mg/kg), and oral administration of a test substance. In the middle of the administration, on Day 4 of the start of administration, the rats were subjected to a stimulation treatment of decidualization reaction to the right uterus. The day after the final administration, the uterine weight (right uterine body) was measured (n=6). Group E was subjected to ovariectomy and a stimulation treatment of decidualization reaction but was not subjected to a hormone treatment.
Group E: rats with ovariectomy without hormone treatment 0.5 v/v % Polysorbate 80 solution, 10 mL/kg (n=6) • Solvent group (control group): 0.5 v/v % Polysorbate 80 solution, 10 mL/kg (n=6) • Group A3: Compound A, 3 mg/kg (n=6) • Group A10: Compound A, 10 mg/kg (n=6) • Group A30: Compound A, 30 mg/kg (n=6) • Group D: Compound D (mifepristone), 3 mg/kg (n=6)

[3] = female rats, lower urinary tract obstruction, vs control group
[4] = Compound C 0.3 mg/kg, in comparison with the solvent group
[5] = Compound C oral 0.3 mg/kg, 4 weeks
[6] = Compound C oral 0.3 mg/kg, relative to solvent group

CC(=O)O[C@]1(C(C)=O)CC[C@H]2[C@@H]3C=C(Cl)C4=CC(=O)OC[C@]4(C)[C@H]3CC[C@@]21C [Compound B, 17α-acetoxy-6-chloro-2-oxa-4,6-pregnadiene-3,20-dione, reference compound]
survival rate ([1]; female lower urinary tract obstruction rats): decreased
wet weights of the bladder and the kidney ([1]; female rats, lower urinary tract obstruction): rather in the direction of increasing
residual urine volume ([1]; female rats, lower urinary tract obstruction, vs control (solvent) group): significantly increased
bladder capacity [1, 3]: significantly increased
urination efficiency [1, 3]: reduced

C[C@]12C=CC(=O)N[C@@H]1CC[C@@H]1[C@@H]2CC[C@]2(C)[C@@H](C(=O)Nc3cc(C(F)(F)F)ccc3C(F)(F)F)CC[C@@H]12 [Compound C, dutasteride, reference compound]
position in nomogram analysis (bladder contraction force) ([2]; Compound C 0.3 mg/kg): at almost the same position as the solvent group
therapeutic effect on diabetes ([2]; Compound C 0.3 mg/kg): no therapeutic effect
weights of the ventral prostate, the dorsolateral prostate, and the whole prostate ([2]; Compound C 0.3 mg/kg, compared with the solvent group (P<0.05)): significant decrease
residual urine volume, cystometry (CMG) under awake condition [2, 4]: did not statistically affect
urination efficiency, cystometry (CMG) under awake condition [2, 4]: did not statistically affect
effect on the blood glucose level ([2]; Compound C 0.3 mg/kg, vs solvent group): did not statistically affect
Prostate weight, ventral prostate ([2]; Compound C (dutasteride) oral 0.3 mg/kg, 4 weeks): 58.4 ± 8.4 mg/100 g body weight
Blood glucose level [2, 5]: 984.2 ± 282.0 mg/dL
Prostate weight, dorsolateral prostate [2, 5]: 40.5 ± 6.3 mg/100 g body weight
Prostate weight, whole [2, 5]: 98.9 ± 12.2 mg/100 g body weight
Dorsolateral prostate atrophy rate [2, 6]: (37.5%)
Ventral prostate atrophy rate [2, 6]: (42.7%)
Whole prostate atrophy rate [2, 6]: (40.7%)

CC#C[C@]1(O)CC[C@H]2[C@@H]3CCC4=CC(=O)CCC4=C3[C@@H](c3ccc(N(C)C)cc3)C[C@@]21C [Compound D, mifepristone, reference compound]
inhibition at 3 mg/kg (ovariectomized rats): 89.5%

Source: patent US20240041899A1, “SOLID PREPARATION” (ASKA Pharmaceutical Co., Ltd., priority 2020, published 2024)
